The experiment has as its target HPK1 (Homo sapiens (Human), UniProt Q92918). Nature of the experiment: HPK1 Kinase Binding Assay. The settings on record: active HPK1 (SignalChem M23-11G), tracer 222, LanthaScreen Eu-Anti GST antibody, one hour incubation at 25° C. As to the method: Example A. HPK1 Kinase Binding Assay
A stock solution of 1 mM test compound was prepared in DMSO. The compound plate was prepared by 3-fold and 11-point serial dilutions. 0.1 μL of the compound in DMSO was transferred from the compound plate to the white 384 well polystyrene plates. The assay buffer contained 50 mM HEPES, pH 7.5, 0.01% Tween-20, 5 mM MgCl2, 0.01% BSA, and 5 mM DTT. 5 μl of 4 nM active HPK1 (SignalChem M23-11G) prepared in the buffer was added to the plate. The enzyme concentration given was based on the given stock concentration reported by the vender. 5 μl of 18 nM tracer 222 (ThermoFisher PV6121) and 4 nM LanthaScreen Eu-Anti GST antibody (ThermoFisher PV5595) were added. After one hour incubation at 25° C., the plates were read on a PHERAstar FS plate reader (BMG Labtech). Ki values were determined.
Sequence of HPK1 (Q92918 1-346): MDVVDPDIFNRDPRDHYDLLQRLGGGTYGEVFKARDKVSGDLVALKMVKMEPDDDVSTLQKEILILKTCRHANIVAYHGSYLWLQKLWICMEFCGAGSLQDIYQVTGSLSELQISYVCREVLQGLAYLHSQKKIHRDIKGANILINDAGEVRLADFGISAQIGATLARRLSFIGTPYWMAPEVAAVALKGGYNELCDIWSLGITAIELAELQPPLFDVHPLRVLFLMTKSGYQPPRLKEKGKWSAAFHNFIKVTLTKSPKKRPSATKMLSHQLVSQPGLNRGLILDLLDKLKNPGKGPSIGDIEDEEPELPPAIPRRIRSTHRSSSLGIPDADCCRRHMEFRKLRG
Regarding `CNCc1cc(C)c(-c2cc3c(-c4ccc(S(C)(=O)=O)cc4)n[nH]c3cc2C#N)c(F)c1` [Example 18, 5-(2-Fluoro-6-methyl-4-((methylamino)methyl)phenyl)-3-(4-(methylsulfonyl)phenyl)-1H-indazole-6-carbonitrile], the Ki was at most 100 nM.
In turn, `CNCc1cc(C)c(-c2cc3c(-c4cccc(N5CCC(O)CC5)n4)n[nH]c3cc2C#N)c(F)c1` [Example 45, 5-(2-Fluoro-6-methyl-4-((methylamino)methyl)phenyl)-3-(6-(4-hydroxypiperidin-1-yl)pyridin-2-yl)-1H-indazole-6-carbonitrile] displayed a Ki of at most 100 nM.
In turn, `CNCc1cc(C)c(-c2cc3c(-c4ccc(S(C)(=O)=O)cc4Cl)n[nH]c3cc2C#N)c(F)c1` [Example 24, 3-(2-Chloro-4-(methylsulfonyl)phenyl)-5-(2-fluoro-6-methyl-4-((methylamino)methyl)phenyl)-1H-indazole-6-carbonitrile] showed a Ki of at most 100 nM.
Molecule `CNCc1cc(C)c(-c2cc3c(-c4cccc(N5CCN(C)CC5)n4)n[nH]c3cc2C#N)c(F)c1` [Example 46, 5-(2-Fluoro-6-methyl-4-((methylamino)methyl)phenyl)-3-(6-(4-methylpiperazin-1-yl)pyridin-2-yl)-1H-indazole-6-carbonitrile] gave a Ki of at most 100 nM.
For `CNCc1cc(C)c(-c2cc3c(-c4ccc(C5CCOCC5)nc4)n[nH]c3cc2C#N)c(F)c1` [Example 32, 5-(2-Fluoro-6-methyl-4-((methylamino)methyl)phenyl)-3-(6-(tetrahydro-2H-pyran-4-yl)pyridin-3-yl)-1H-indazole-6-carbonitrile], the Ki was at most 100 nM.
Take `CNCc1cc(C)c(-c2cc3c(-c4ccc(N5CCOCC5)nc4)n[nH]c3cc2C#N)c(F)c1` [Example 28, 5-(2-Fluoro-6-methyl-4-((methylamino)methyl)phenyl)-3-(6-morpholinopyridin-3-yl)-1H-indazole-6-carbonitrile]: the Ki was at most 100 nM.
For `CNCc1cc(C)c(-c2cc3c(-c4ccc(NC(C)=O)nc4)n[nH]c3cc2C#N)c(F)c1` [Example 29, N-(5-(6-Cyano-5-(2-fluoro-6-methyl-4-((methylamino)methyl)phenyl)-1H-indazol-3-yl)pyridin-2-yl)acetamide] the value was at most 100 nM.
The molecule `CNCc1cc(C)c(-c2cc3c(-c4ccnc(C)c4)n[nH]c3cc2C#N)c(F)c1` [Example 31, 5-(2-Fluoro-6-methyl-4-((methylamino)methyl)phenyl)-3-(2-methylpyridin-4-yl)-1H-indazole-6-carbonitrile] registered a Ki of at most 100 nM.
Turning to `CNCc1cc(C)c(-c2cc3c(-c4ccc(S(C)(=O)=O)c(F)c4)n[nH]c3cc2C#N)c(F)c1` [Example 23, 3-(3-Fluoro-4-(methylsulfonyl)phenyl)-5-(2-fluoro-6-methyl-4-((methylamino)methyl)phenyl)-1H-indazole-6-carbonitrile], the Ki was at most 100 nM.
Consider `CNCc1cc(C)c(-c2cc3c(-c4cnn(-c5ccccc5Cl)c4)n[nH]c3cc2C#N)c(F)c1` [Example 5, 3-(1-(2-Chlorophenyl)-1H-pyrazol-4-yl)-5-(2-fluoro-6-methyl-4-((methylamino)methyl)phenyl)-1H-indazole-6-carbonitrile], for which the Ki was at most 100 nM.
Turning to `CCn1cc(-c2n[nH]c3cc(C#N)c(-c4c(C)cc(CNC)cc4F)cc23)cn1` [Example 1, 3-(1-Ethyl-1H-pyrazol-4-yl)-5-(2-fluoro-6-methyl-4-((methylamino)methyl)phenyl)-1H-indazole-6-carbonitrile], the inhibitory constant (Ki) was at most 100 nM.
Next, `CNCc1cc(C)c(-c2cc3c(-c4ccc(C)cc4)n[nH]c3cc2C#N)c(F)c1` [Example 11, 5-(2-Fluoro-6-methyl-4-((methylamino)methyl)phenyl)-3-p-tolyl-1H-indazole-6-carbonitrile]: at most 100 nM; `CNCc1cc(C)c(-c2cc3c(-c4ccc(C)nc4)n[nH]c3cc2C#N)c(F)c1` [Example 34, 5-(2-Fluoro-6-methyl-4-((methylamino)methyl)phenyl)-3-(6-methylpyridin-3-yl)-1H-indazole-6-carbonitrile]: at most 100 nM; `Cn1cc(-c2n[nH]c3cc(C#N)c(-c4ccccc4F)cc23)cn1` [Example 49, 5-(2-Fluorophenyl)-3-(1-methyl-1H-pyrazol-4-yl)-1H-indazole-6-carbonitrile]: at most 100 nM.
On to `COc1cccc(F)c1-c1cc2c(-c3cnn(C)c3)n[nH]c2cc1C#N` [Example 50, 5-(2-Fluoro-6-methoxyphenyl)-3-(1-methyl-1H-pyrazol-4-yl)-1H-indazole-6-carbonitrile], for which the Ki is at most 100 nM.
As for `CNCc1cc(C)c(-c2cc3c(-c4cnn(CC(F)(F)F)c4)n[nH]c3cc2C#N)c(F)c1` [Example 3, 5-(2-Fluoro-6-methyl-4-((methylamino)methyl)phenyl)-3-(1-(2,2,2-trifluoroethyl)-1H-pyrazol-4-yl)-1H-indazole-6-carbonitrile], the Ki was at most 100 nM.
Next, `CNCc1cc(C)c(-c2cc3c(-c4ccc(CO)cc4)n[nH]c3cc2C#N)c(F)c1` [Example 7, 5-(2-Fluoro-6-methyl-4-((methylamino)methyl)phenyl)-3-(4-(hydroxymethyl)phenyl)-1H-indazole-6-carbonitrile]: at most 100 nM.
On to `CNCc1cc(C)c(-c2cc3c(-c4cnc(N5CCN(C)CC5)nc4)n[nH]c3cc2C#N)c(F)c1` [Example 27, 5-(2-Fluoro-6-methyl-4-((methylamino)methyl)phenyl)-3-(2-(4-methylpiperazin-1-yl)pyrimidin-5-yl)-1H-indazole-6-carbonitrile], for which the Ki is at most 100 nM.
In turn, `Cc1cccc(F)c1-c1cc2c(-c3cnn(C)c3)n[nH]c2cc1C#N` [Example 51, 5-(2-Fluoro-6-methylphenyl)-3-(1-methyl-1H-pyrazol-4-yl)-1H-indazole-6-carbonitrile] yielded a Ki of at most 100 nM.
Turning to `CNCc1cc(C)c(-c2cc3c(-c4ccc(C(C)(C)O)nc4)n[nH]c3cc2C#N)c(F)c1` [Example 33, 5-(2-Fluoro-6-methyl-4-((methylamino)methyl)phenyl)-3-(6-(2-hydroxypropan-2-yl)pyridin-3-yl)-1H-indazole-6-carbonitrile], the inhibitory constant (Ki) is at most 100 nM.

The values above are taken from patent US10722495B2, “Cyanoindazole compounds and uses thereof” (Incyte Corporation, priority 2017, dated 2020).
